Values quoted from earlier work, collected in patent US20080064694A1, “Multi-Phase Release Methscopolamine Compositions” (Auriga Laboratories, Inc., priority 2006, published 2008).
Entries after “also recorded” stand apart in the source; their conditions may differ.

Conditions: following administration of methscopolamine bromide

Substance: [7(S)-( 1α, 2β, 4β, 5α, 7β)]-7-(3-hydroxy-1oxo-2-phenylpropoxy)-9,9-dimethyl-3-Oxo-9-azoniatricyclo[3.3.1.0]nonane [Methscopolamine bromide]
- adverse reactions observed: Tachycardia, palpitation; also recorded: Severe allergic reaction or drug idiosyncrasies including anaphylaxis; also recorded: Headaches, nervousness, mental confusion, drowsiness, dizziness; also recorded: Blurred vision, dilation of the pupil, cycloplegia, increased ocular tension, loss of taste; also recorded: Urinary hesitancy and retention; also recorded: Nausea, vomiting, constipation, bloated feeling; also recorded: Decreased sweating, urticaria and other dermal manifestations; also recorded: Xerostomia, weakness, insomnia, impotence, suppression of lactation
